In brackets after ≈: the same amount, converted by molar mass.
Key:
Format in all cases: functional
Aspergillus fumigatus = assay: Antifungal activity against Aspergillus fumigatus
Candida tropicalis = assay: Antifungal activity against Candida tropicalis
Sporothrix schenckii = assay: Antifungal activity against Sporothrix schenckii
Candida albicans = assay: Antifungal activity against Candida albicans
Cryptococcus neoformans = assay: Antifungal activity against Cryptococcus neoformans
Fonsecaea pedrosoi = assay: Antifungal activity against Fonsecaea pedrosoi
Candida parapsilosis = assay: Antifungal activity against Candida parapsilosis; conditions: Lodderomyces parapsilosis
Trichophyton rubrum = assay: Antifungal activity against Trichophyton rubrum

| MIC80 (Aspergillus fumigatus) | MIC80 (Candida tropicalis) | MIC80 (Sporothrix schenckii) | MIC80 (Candida albicans) | MIC80 (Cryptococcus neoformans) | MIC80 (Fonsecaea pedrosoi) | MIC80 (Candida parapsilosis) | MIC80 (Trichophyton rubrum) | SMILES |
| --- | --- | --- | --- | --- | --- | --- | --- | --- |
| 64 µg/mL (≈ 107 µM) | 0.0625 µg/mL (≈ 0.105 µM) | 64 µg/mL (≈ 107 µM) | 0.008 µg/mL (≈ 0.0134 µM) | 8 µg/mL (≈ 13.4 µM) | 2 µg/mL (≈ 3.36 µM) | 0.016 µg/mL (≈ 0.0269 µM) | 4 µg/mL (≈ 6.72 µM) | CN(Cc1ccc(-n2cnn(CC(=O)c3ccc(F)cc3F)c2=O)cc1)CC(O)(Cn1cncn1)c1ccc(F)cc1F (stereo unspecified) |
| 64 µg/mL (≈ 109 µM) | 0.5 µg/mL (≈ 0.851 µM) | 64 µg/mL (≈ 109 µM) | 0.25 µg/mL (≈ 0.425 µM) | 16 µg/mL (≈ 27.2 µM) | 8 µg/mL (≈ 13.6 µM) | 2 µg/mL (≈ 3.4 µM) | 32 µg/mL (≈ 54.5 µM) | CCc1ccc(C(=O)Cn2ncn(-c3ccc(CN(C)CC(O)(Cn4cncn4)c4ccc(F)cc4F)cc3)c2=O)cc1 (stereo unspecified) |
| 2 µg/mL (≈ 3.04 µM) | 1 µg/mL (≈ 1.52 µM) | 64 µg/mL (≈ 97.3 µM) | 0.031 µg/mL (≈ 0.0472 µM) | 0.25 µg/mL (≈ 0.38 µM) | 0.0625 µg/mL (≈ 0.0951 µM) | 0.031 µg/mL (≈ 0.0472 µM) | 0.25 µg/mL (≈ 0.38 µM) | CN(Cc1ccc(-n2cnn(Cc3ccc(I)cc3)c2=O)cc1)CC(O)(Cn1cncn1)c1ccc(F)cc1F (stereo unspecified) |
| 16 µg/mL (≈ 27.9 µM) | 0.0312 µg/mL (≈ 0.0545 µM) | 64 µg/mL (≈ 112 µM) | 0.002 µg/mL (≈ 0.00349 µM) | 0.125 µg/mL (≈ 0.218 µM) | 0.125 µg/mL (≈ 0.218 µM) | 0.008 µg/mL (≈ 0.0139 µM) | 1 µg/mL (≈ 1.74 µM) | Cc1ccc(C(=O)Cn2ncn(-c3ccc(CN(C)CC(O)(Cn4cncn4)c4ccc(F)cc4F)cc3)c2=O)cc1 (stereo unspecified) |
| 4 µg/mL (≈ 7.07 µM) | 0.0625 µg/mL (≈ 0.11 µM) | 64 µg/mL (≈ 113 µM) | 0.002 µg/mL (≈ 0.00353 µM) | 0.5 µg/mL (≈ 0.883 µM) | 0.125 µg/mL (≈ 0.221 µM) | 0.008 µg/mL (≈ 0.0141 µM) | 0.5 µg/mL (≈ 0.883 µM) | CN(Cc1ccc(-n2cnn(Cc3ccc(Cl)cc3)c2=O)cc1)CC(O)(Cn1cncn1)c1ccc(F)cc1F (stereo unspecified) |
| 8 µg/mL (≈ 13.3 µM) | 0.0625 µg/mL (≈ 0.104 µM) | 16 µg/mL (≈ 26.7 µM) | 0.001 µg/mL (≈ 0.00167 µM) | 0.25 µg/mL (≈ 0.417 µM) | 0.0625 µg/mL (≈ 0.104 µM) | 0.008 µg/mL (≈ 0.0133 µM) | 0.5 µg/mL (≈ 0.834 µM) | CN(Cc1ccc(-n2cnn(Cc3ccc(C(F)(F)F)cc3)c2=O)cc1)CC(O)(Cn1cncn1)c1ccc(F)cc1F (stereo unspecified) |
| 8 µg/mL (≈ 13.1 µM) | 0.0625 µg/mL (≈ 0.102 µM) | 64 µg/mL (≈ 105 µM) | 0.002 µg/mL (≈ 0.00328 µM) | 0.008 µg/mL (≈ 0.0131 µM) | 0.0625 µg/mL (≈ 0.102 µM) | 0.008 µg/mL (≈ 0.0131 µM) | 0.25 µg/mL (≈ 0.41 µM) | CN(Cc1ccc(-n2cnn(Cc3ccc(Br)cc3)c2=O)cc1)CC(O)(Cn1cncn1)c1ccc(F)cc1F (stereo unspecified) |
| 16 µg/mL (≈ 26.7 µM) | 0.0625 µg/mL (≈ 0.104 µM) | 64 µg/mL (≈ 107 µM) | 0.002 µg/mL (≈ 0.00334 µM) | 0.125 µg/mL (≈ 0.208 µM) | 0.125 µg/mL (≈ 0.208 µM) | 0.008 µg/mL (≈ 0.0133 µM) | 0.5 µg/mL (≈ 0.834 µM) | CN(Cc1ccc(-n2cnn(Cc3cccc(C(F)(F)F)c3)c2=O)cc1)CC(O)(Cn1cncn1)c1ccc(F)cc1F (stereo unspecified) |
| 32 µg/mL (≈ 54.3 µM) | 0.125 µg/mL (≈ 0.212 µM) | 64 µg/mL (≈ 109 µM) | 0.016 µg/mL (≈ 0.0271 µM) | 8 µg/mL (≈ 13.6 µM) | 1 µg/mL (≈ 1.7 µM) | 0.03 µg/mL (≈ 0.0509 µM) | 4 µg/mL (≈ 6.78 µM) | COc1ccc(C(=O)Cn2ncn(-c3ccc(CN(C)CC(O)(Cn4cncn4)c4ccc(F)cc4F)cc3)c2=O)cc1 (stereo unspecified) |
| 64 µg/mL (≈ 171 µM) | 0.5 µg/mL (≈ 1.34 µM) | 64 µg/mL (≈ 171 µM) | 0.0625 µg/mL (≈ 0.167 µM) | 8 µg/mL (≈ 21.4 µM) | 4 µg/mL (≈ 10.7 µM) | 2 µg/mL (≈ 5.36 µM) | 16 µg/mL (≈ 42.8 µM) | CN(Cc1ccc(N)cc1)CC(O)(Cn1cncn1)c1ccc(F)cc1F (stereo unspecified) |
| 32 µg/mL (≈ 58.2 µM) | 0.0625 µg/mL (≈ 0.114 µM) | 64 µg/mL (≈ 116 µM) | 0.031 µg/mL (≈ 0.0564 µM) | 1 µg/mL (≈ 1.82 µM) | 0.0625 µg/mL (≈ 0.114 µM) | 2 µg/mL (≈ 3.64 µM) | 1 µg/mL (≈ 1.82 µM) | CN(Cc1ccc(-n2cnn(Cc3ccccc3F)c2=O)cc1)CC(O)(Cn1cncn1)c1ccc(F)cc1F (stereo unspecified) |
| 8 µg/mL (≈ 14.3 µM) | 0.25 µg/mL (≈ 0.447 µM) | 64 µg/mL (≈ 114 µM) | 0.008 µg/mL (≈ 0.0143 µM) | 0.5 µg/mL (≈ 0.893 µM) | 0.25 µg/mL (≈ 0.447 µM) | 0.008 µg/mL (≈ 0.0143 µM) | 0.5 µg/mL (≈ 0.893 µM) | CCc1ccc(Cn2ncn(-c3ccc(CN(C)CC(O)(Cn4cncn4)c4ccc(F)cc4F)cc3)c2=O)cc1 (stereo unspecified) |
| 2 µg/mL (≈ 3.04 µM) | 0.0625 µg/mL (≈ 0.0951 µM) | 64 µg/mL (≈ 97.3 µM) | 0.002 µg/mL (≈ 0.00304 µM) | 0.25 µg/mL (≈ 0.38 µM) | 0.0625 µg/mL (≈ 0.0951 µM) | 0.008 µg/mL (≈ 0.0122 µM) | 0.25 µg/mL (≈ 0.38 µM) | CN(Cc1ccc(-n2cnn(Cc3cccc(I)c3)c2=O)cc1)CC(O)(Cn1cncn1)c1ccc(F)cc1F (stereo unspecified) |
| 64 µg/mL (≈ 102 µM) | 0.125 µg/mL (≈ 0.199 µM) | 64 µg/mL (≈ 102 µM) | 0.031 µg/mL (≈ 0.0493 µM) | 16 µg/mL (≈ 25.5 µM) | 4 µg/mL (≈ 6.36 µM) | 1 µg/mL (≈ 1.59 µM) | 32 µg/mL (≈ 50.9 µM) | CN(Cc1ccc(-n2cnn(CC(=O)c3ccc(Cl)cc3Cl)c2=O)cc1)CC(O)(Cn1cncn1)c1ccc(F)cc1F (stereo unspecified) |
| 32 µg/mL (≈ 56.5 µM) | 0.125 µg/mL (≈ 0.221 µM) | 32 µg/mL (≈ 56.5 µM) | 0.004 µg/mL (≈ 0.00707 µM) | 1 µg/mL (≈ 1.77 µM) | 0.5 µg/mL (≈ 0.883 µM) | 0.06 µg/mL (≈ 0.106 µM) | 4 µg/mL (≈ 7.07 µM) | CN(Cc1ccc(-n2cnn(Cc3ccccc3Cl)c2=O)cc1)CC(O)(Cn1cncn1)c1ccc(F)cc1F (stereo unspecified) |
| 64 µg/mL (≈ 116 µM) | 1 µg/mL (≈ 1.82 µM) | 32 µg/mL (≈ 58.2 µM) | 0.004 µg/mL (≈ 0.00728 µM) | 4 µg/mL (≈ 7.28 µM) | 1 µg/mL (≈ 1.82 µM) | 4 µg/mL (≈ 7.28 µM) | 8 µg/mL (≈ 14.6 µM) | CN(Cc1ccc(-n2cnn(Cc3ccc(F)cc3)c2=O)cc1)CC(O)(Cn1cncn1)c1ccc(F)cc1F (stereo unspecified) |
| 2 µg/mL (≈ 3.33 µM) | 0.0625 µg/mL (≈ 0.104 µM) | 4 µg/mL (≈ 6.66 µM) | 0.002 µg/mL (≈ 0.00333 µM) | 0.008 µg/mL (≈ 0.0133 µM) | 0.125 µg/mL (≈ 0.208 µM) | 0.008 µg/mL (≈ 0.0133 µM) | 0.25 µg/mL (≈ 0.416 µM) | CN(Cc1ccc(-n2cnn(Cc3ccc(Cl)cc3Cl)c2=O)cc1)CC(O)(Cn1cncn1)c1ccc(F)cc1F (stereo unspecified) |

Source: ChEMBL document CHEMBL1146065, “Structure-based optimization of azole antifungal agents by CoMFA, CoMSIA, and molecular docking” (2006)
